Measurements: patent US20230117034A1, “PYRAZOLOTRIAZINES” (Bayer Aktiengesellschaft, priority 2019, published 2023)

Key:
CDK9/CycT1 = target: T1, CDK9/CycT1 (Homo sapiens, UniProt P50750); experiment: CDK9/CycT1 high ATP kinase assay (TR-FRET, 2 mM ATP); type: biochemical; settings: 2 mM ATP (high ATP); median; read-out: CDK9/CyclinT1, 2 mM ATP (high ATP), IC50 (median)
T1 construct: Recombinant full-length His-tagged human CDK9 and CycT1; purchased Life Technologies PV4131; host or cells: insect cells
T1 sequence (P50750 whole entry): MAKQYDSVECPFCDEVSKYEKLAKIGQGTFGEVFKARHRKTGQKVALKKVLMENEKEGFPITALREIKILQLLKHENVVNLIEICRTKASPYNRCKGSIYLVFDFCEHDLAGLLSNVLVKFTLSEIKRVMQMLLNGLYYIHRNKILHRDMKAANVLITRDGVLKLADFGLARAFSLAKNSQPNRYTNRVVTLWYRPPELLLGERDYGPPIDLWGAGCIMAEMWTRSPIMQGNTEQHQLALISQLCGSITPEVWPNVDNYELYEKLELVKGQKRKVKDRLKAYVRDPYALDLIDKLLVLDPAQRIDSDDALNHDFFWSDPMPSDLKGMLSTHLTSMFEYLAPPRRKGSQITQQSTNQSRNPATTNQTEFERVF
T1 sequence (O60563 whole entry partner): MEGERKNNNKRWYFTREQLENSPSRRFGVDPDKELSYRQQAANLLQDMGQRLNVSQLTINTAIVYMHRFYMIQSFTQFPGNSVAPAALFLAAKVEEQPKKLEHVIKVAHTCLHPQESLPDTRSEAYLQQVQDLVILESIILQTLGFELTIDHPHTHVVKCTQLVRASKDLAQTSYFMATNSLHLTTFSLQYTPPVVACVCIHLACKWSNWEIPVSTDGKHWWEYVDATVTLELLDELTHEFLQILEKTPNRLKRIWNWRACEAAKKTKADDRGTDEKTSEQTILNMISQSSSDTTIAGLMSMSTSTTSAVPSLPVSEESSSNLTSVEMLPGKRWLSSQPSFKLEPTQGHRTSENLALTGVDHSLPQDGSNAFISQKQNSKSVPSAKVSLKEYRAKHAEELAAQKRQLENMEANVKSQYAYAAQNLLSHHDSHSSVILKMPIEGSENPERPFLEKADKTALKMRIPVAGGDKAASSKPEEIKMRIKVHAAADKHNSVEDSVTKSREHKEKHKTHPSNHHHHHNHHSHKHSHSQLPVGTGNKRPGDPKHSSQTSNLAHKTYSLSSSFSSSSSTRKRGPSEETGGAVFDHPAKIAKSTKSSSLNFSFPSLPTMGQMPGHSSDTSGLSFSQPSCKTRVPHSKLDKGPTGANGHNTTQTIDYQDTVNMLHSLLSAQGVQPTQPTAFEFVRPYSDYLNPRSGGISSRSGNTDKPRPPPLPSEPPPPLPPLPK
How it was run: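 Full-length His-tagged human CDK9/CycT1 (insect cell, ~0.5 μg/mL) preincubated 15 min at 22 °C with compound in Tris pH 8.0, MgCl2, DTT buffer before reaction with biotinylated peptide substrate at high ATP (2 mM).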

CDK12/CycK = CDK12/CycK (Homo sapiens, UniProt Q9NYV4); experiment: CDK12/CycK high ATP kinase assay (TR-FRET, 2 mM ATP); type: biochemical; settings: 2 mM ATP (high ATP); median; read-out: CDK12/CyclinK, 2 mM ATP (high ATP), IC50-[mol/l] (median)
Sequence of CDK12/CycK (Q9NYV4 with tags, fused parts or gaps): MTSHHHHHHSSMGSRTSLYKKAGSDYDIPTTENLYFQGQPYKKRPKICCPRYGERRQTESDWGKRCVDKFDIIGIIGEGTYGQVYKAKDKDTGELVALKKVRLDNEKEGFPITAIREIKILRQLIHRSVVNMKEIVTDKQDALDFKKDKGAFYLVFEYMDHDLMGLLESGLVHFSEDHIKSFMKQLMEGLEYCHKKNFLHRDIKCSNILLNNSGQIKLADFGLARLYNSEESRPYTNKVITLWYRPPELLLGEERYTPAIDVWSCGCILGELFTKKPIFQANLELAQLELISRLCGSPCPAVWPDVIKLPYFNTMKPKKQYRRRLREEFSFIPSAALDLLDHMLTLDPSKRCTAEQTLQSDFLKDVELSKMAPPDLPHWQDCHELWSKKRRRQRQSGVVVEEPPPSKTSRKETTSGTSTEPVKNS
Sequence of CDK12/CycK (O75909 1-300 partner limits assumed): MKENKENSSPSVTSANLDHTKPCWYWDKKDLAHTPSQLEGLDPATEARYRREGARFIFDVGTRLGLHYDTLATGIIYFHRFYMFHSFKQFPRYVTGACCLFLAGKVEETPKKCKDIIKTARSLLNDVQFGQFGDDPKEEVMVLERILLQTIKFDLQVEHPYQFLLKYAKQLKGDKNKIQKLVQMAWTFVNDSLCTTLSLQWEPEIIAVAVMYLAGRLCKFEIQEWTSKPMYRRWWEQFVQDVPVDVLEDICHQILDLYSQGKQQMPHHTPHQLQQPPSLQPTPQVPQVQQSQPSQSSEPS
How it was run: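 Read-out is TR-FRET (Eu-anti-rabbit IgG, anti-phospho-c-Myc Ser62 antibody, streptavidin-XL665) after EDTA stop. Reaction ran 60 min at 22 °C using 1 µM biotin-peptide and high ATP (2 mM) with roughly 0.75 nM recombinant CDK12/CycK, after 15 min compound pre-binding; normalised emission ratios yield IC50.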

[1] = target: T2, CDK12 (nuclear staining in CAL-120 cells) (Homo sapiens, UniProt Q9NYV4); experiment: CDK12 nuclear protein level: immunofluorescence/high content analysis (CAL-120); type: cell-based; settings: for DC50: CAL-120 cells, 24 h, immunofluorescence, 50% reduction of nuclear CDK12 staining intensity, median, read-out: CDK12 degradation IF, DC50- [mol/l] (median); for (IC50 CDK12 high ATP) to (Degradation DC50 CDK12) ratio: ratio of IC50 CDK12 high ATP kinase assay to DC50 CDK12 degradation (IF, CAL-120)
T2 construct: endogenous in cells; host or cells: CAL-120 human breast cancer cells (DSMZ ACC 459)
T2 sequence (Q9NYV4 whole entry): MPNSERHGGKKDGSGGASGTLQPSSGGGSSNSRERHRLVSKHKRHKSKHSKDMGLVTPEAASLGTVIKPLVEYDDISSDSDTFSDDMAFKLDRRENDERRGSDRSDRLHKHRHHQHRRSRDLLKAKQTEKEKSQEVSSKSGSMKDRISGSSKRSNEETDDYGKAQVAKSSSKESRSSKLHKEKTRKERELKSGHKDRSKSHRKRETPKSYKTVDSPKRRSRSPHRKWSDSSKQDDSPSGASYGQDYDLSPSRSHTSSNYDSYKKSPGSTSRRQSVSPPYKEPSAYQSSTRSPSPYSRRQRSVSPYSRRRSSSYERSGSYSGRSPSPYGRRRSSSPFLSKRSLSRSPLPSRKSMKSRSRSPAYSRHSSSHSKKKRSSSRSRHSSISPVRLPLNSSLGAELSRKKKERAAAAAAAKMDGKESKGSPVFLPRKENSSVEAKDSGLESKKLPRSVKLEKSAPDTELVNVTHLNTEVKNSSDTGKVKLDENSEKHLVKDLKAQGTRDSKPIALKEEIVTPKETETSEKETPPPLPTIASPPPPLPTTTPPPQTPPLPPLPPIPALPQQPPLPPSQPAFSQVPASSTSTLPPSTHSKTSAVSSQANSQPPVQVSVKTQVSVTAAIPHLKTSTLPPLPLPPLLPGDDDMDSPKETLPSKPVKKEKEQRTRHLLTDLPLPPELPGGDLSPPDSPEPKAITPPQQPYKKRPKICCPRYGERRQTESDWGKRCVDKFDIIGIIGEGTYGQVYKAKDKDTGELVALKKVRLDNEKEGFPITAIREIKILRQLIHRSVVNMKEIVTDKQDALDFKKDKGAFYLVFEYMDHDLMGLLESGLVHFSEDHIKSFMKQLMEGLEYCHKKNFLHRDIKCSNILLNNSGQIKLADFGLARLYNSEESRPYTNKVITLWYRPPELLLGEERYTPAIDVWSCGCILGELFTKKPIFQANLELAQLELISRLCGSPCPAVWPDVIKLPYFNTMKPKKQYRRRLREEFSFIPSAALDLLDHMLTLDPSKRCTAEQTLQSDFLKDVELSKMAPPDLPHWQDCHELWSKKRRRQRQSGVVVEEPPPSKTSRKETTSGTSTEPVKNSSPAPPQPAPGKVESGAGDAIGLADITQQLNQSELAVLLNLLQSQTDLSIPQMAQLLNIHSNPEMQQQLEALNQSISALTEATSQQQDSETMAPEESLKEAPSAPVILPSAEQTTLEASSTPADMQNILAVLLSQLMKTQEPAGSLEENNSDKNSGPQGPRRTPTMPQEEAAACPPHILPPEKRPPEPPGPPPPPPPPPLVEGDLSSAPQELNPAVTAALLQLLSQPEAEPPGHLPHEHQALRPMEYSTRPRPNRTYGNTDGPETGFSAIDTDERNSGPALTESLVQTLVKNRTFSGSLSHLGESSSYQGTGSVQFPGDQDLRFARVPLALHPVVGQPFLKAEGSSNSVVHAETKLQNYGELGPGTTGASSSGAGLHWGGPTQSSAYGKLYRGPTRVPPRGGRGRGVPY
T2 sequence (O75909 whole entry partner): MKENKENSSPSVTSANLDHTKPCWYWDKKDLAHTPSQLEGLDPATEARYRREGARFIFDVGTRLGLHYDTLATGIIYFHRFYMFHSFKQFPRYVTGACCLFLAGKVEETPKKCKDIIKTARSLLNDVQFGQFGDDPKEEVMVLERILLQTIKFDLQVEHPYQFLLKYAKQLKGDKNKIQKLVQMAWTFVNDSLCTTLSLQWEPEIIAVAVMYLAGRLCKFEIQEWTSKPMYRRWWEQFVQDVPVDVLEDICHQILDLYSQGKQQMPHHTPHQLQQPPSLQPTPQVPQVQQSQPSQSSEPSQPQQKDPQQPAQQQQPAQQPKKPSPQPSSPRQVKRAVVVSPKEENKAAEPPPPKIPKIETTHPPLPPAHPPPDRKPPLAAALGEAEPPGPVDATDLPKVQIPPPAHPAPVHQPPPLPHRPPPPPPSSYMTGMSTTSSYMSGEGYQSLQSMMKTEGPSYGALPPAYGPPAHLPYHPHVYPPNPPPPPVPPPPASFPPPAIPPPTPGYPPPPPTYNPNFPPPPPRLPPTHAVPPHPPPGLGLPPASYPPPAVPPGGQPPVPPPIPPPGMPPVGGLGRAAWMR
How it was run: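 DC50 is the degrader concentration that halves nuclear CDK12 immunofluorescence relative to controls, measured by high-content imaging. CAL-120 cells were exposed to compound for 24 h at 37 °C before PFA fixation, and signal was normalized to DMSO and control wells.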

Row | IC50 (CDK9/CycT1) [nM] | IC50 (CDK12/CycK) [nM] | DC50 [1] [nM] | (IC50 CDK12 high ATP) to (Degradation DC50 CDK12) ratio [1] | Structure (SMILES)
1 | > 20000 | 1910 | 0.878 | 2179 | Fc1ccc2[nH]c(CNc3nc(N4CCOCC4)nc4c(C5CC5)cnn34)nc2c1 [Example 181, 8-cyclopropyl-N-[(5-fluoro-1H-benzimidazol-2-yl)methyl]-2-(morpholin-4-yl)pyrazolo[1,5-a][1,3,5]triazin-4-amine]
2 | > 20000 | 2040 | 0.727 | 2813 | Fc1cccc2[nH]c(CNc3nc(N4CCNCC4)nc4c(C5CC5)cnn34)nc12 [Example 182, 8-cyclopropyl-N-[(4-fluoro-1H-benzimidazol-2-yl)methyl]-2-(piperazin-1-yl)pyrazolo[1,5-a][1,3,5]triazin-4-amine]
3 | > 20000 | > 19600 | 2.49 | >7872 | Fc1ccc2[nH]c(CNc3nc(N4C[C@@H]5C[C@H]4CO5)nc4c(C5CC5)cnn34)nc2c1 [Example 185, 8-cyclopropyl-N-[(5-fluoro-1H-benzimidazol-2-yl)methyl]-2-[(1S,4S)-2-oxa-5-azabicyclo[2.2.1]heptan-5-yl]pyrazolo[1,5-a][1,3,5]triazin-4-amine]
4 | > 20000 | 581 | 1.26 | 460 | Fc1cccc2[nH]c(CNc3nc(N4CCOCC4)nc4c(C5CC5)cnn34)nc12 [Example 188, 8-cyclopropyl-N-[(4-fluoro-1H-benzimidazol-2-yl)methyl]-2-(morpholin-4-yl)pyrazolo[1,5-a][1,3,5]triazin-4-amine]
5 | > 20000 | 6170 | 0.553 | 11161 | Fc1ccc2[nH]c(CNc3nc(N4CCNCC4)nc4c(C5CC5)cnn34)nc2c1 [Example 190, 8-cyclopropyl-N-[(5-fluoro-1H-benzimidazol-2-yl)methyl]-2-(piperazin-1-yl)pyrazolo[1,5-a][1,3,5]triazin-4-amine]
6 | 7340 | 332 | 0.606 | 548 | OC[C@@H]1CCCCN1c1nc(NCc2nc3cc(F)ccc3[nH]2)n2ncc(C3CC3)c2n1 [Example 191, [(2S)-1-(8-cyclopropyl-4-{[(5-fluoro-1H-benzimidazol-2-yl)methyl]amino}pyrazolo[1,5-a][1,3,5]triazin-2-yl)piperidin-2-yl]methanol]
7 | > 20000 | 1750 | 2.68 | 653 | Cc1ccc2[nH]c(CNc3nc(N4CCOCC4)nc4c(C5CC5)cnn34)nc2c1 [Example 193, 8-cyclopropyl-N-[(5-methyl-1H-benzimidazol-2-yl)methyl]-2-(morpholin-4-yl)pyrazolo[1,5-a][1,3,5]triazin-4-amine]
8 | > 20000 | 15400 | 1.9 | 8068 | Cc1ccc2[nH]c(CNc3nc(N4C[C@H]5C[C@@H]4CO5)nc4c(C5CC5)cnn34)nc2c1 [Example 196, 8-cyclopropyl-N-[(5-methyl-1H-benzimidazol-2-yl)methyl]-2-[(1R,4R)-2-oxa-5-azabicyclo[2.2.1]heptan-5-yl]pyrazolo[1,5-a][1,3,5]triazin-4-amine]

The remaining lines, values behind:

Row | Structure (SMILES) | IC50 (CDK9/CycT1) [nM] | IC50 (CDK12/CycK) [nM] | DC50 [1] [nM] | (IC50 CDK12 high ATP) to (Degradation DC50 CDK12) ratio [1]
9 | Fc1cccc2[nH]c(CNc3nc(N4C[C@@H]5C[C@H]4CO5)nc4c(C5CC5)cnn34)nc12 [Example 183, 8-cyclopropyl-N-[(4-fluoro-1H-benzimidazol-2-yl)methyl]-2-[(1S,4S)-2-oxa-5-azabicyclo[2.2.1]heptan-5-yl]pyrazolo[1,5-a][1,3,5]triazin-4-amine] | > 20000 | 10200 | 1.65 | 6199
10 | OC[C@@H]1CCCCN1c1nc(NCc2nc3c(F)c(F)ccc3[nH]2)n2ncc(C3CC3)c2n1 [Example 184, [(2S)-1-(8-cyclopropyl-4-{[(4,5-difluoro-1H-benzimidazol-2-yl)methyl]amino}pyrazolo[1,5-a][1,3,5]triazin-2-yl)piperidin-2-yl]methanol] | 1640 | 13.2 | 1.75 | 8
11 | C[C@@H]1CN(c2nc(NCc3nc4c(F)cccc4[nH]3)n3ncc(C4CC4)c3n2)C[C@H](C)N1 [Example 186, 8-cyclopropyl-2-[(3R,5S)-3,5-dimethylpiperazin-1-yl]-N-[(4-fluoro-1H-benzimidazol-2-yl)methyl]pyrazolo[1,5-a][1,3,5]triazin-4-amine] | > 20000 | 2720 | 0.226 | 12018
12 | Fc1cccc2[nH]c(CNc3nc(N4C[C@@H]5CCCN[C@@H]5C4)nc4c(C5CC5)cnn34)nc12 [Example 187, 8-cyclopropyl-N-[(4-fluoro-1H-benzimidazol-2-yl)methyl]-2-[(4aS,7aS)-octahydro-6H-pyrrolo[3,4-b]pyridin-6-yl]pyrazolo[1,5-a][1,3,5]triazin-4-amine] | > 20000 | 6500 | 0.707 | 9192
13 | OC[C@@H]1CCCCN1c1nc(NCc2nc3c(F)cccc3[nH]2)n2ncc(C3CC3)c2n1 [Example 189, [(2S)-1-(8-cyclopropyl-4-{[(4-fluoro-1H-benzimidazol-2-yl)methyl]amino}pyrazolo[1,5-a][1,3,5]triazin-2-yl)piperidin-2-yl]methanol] | 2200 | 10.9 | 0.557 | 20
14 | Cc1ccc2[nH]c(CNc3nc(N4C[C@H]5C[C@@H]4CO5)nc4c(Br)cnn34)nc2c1 [Example 192, 8-bromo-N-[(5-methyl-1H-benzimidazol-2-yl)methyl]-2-[(1R,4R)-2-oxa-5-azabicyclo[2.2.1]heptan-5-yl]pyrazolo[1,5-a][1,3,5]triazin-4-amine] | > 20000 | 8500 | 0.56 | 15180
15 | Cc1ccc2[nH]c(CNc3nc(N4C[C@@H](C)N[C@@H](C)C4)nc4c(C5CC5)cnn34)nc2c1 [Example 194, 8-cyclopropyl-2-[(3R,5S)-3,5-dimethylpiperazin-1-yl]-N-[(5-methyl-1H-benzimidazol-2-yl)methyl]pyrazolo[1,5-a][1,3,5]triazin-4-amine] | > 20000 | 3700 | 0.23 | 16078
16 | Cc1ccc2[nH]c(CNc3nc(N4C[C@@H]5CCCN[C@@H]5C4)nc4c(C5CC5)cnn34)nc2c1 [Example 195, 8-cyclopropyl-N-[(5-methyl-1H-benzimidazol-2-yl)methyl]-2-[(4aS,7aS)-octahydro-6H-pyrrolo[3,4-b]pyridin-6-yl]pyrazolo[1,5-a][1,3,5]triazin-4-amine] | > 20000 | 8230 | 2.18 | 3781
17 | COc1cccc2[nH]c(CNc3nc(N4CCN(C)CC4)nc4c(C5CC5)cnn34)nc12 [Example 197, 8-cyclopropyl-N-[(4-methoxy-1H-benzimidazol-2-yl)methyl]-2-(4-methylpiperazin-1-yl)pyrazolo[1,5-a][1,3,5]triazin-4-amine] | > 20000 | 9530 | 1.4 | 6827
18 | COc1cccc2[nH]c(CNc3nc(N4C[C@H]5C[C@@H]4CO5)nc4c(C5CC5)cnn34)nc12 [Example 198, 8-cyclopropyl-N-[(4-methoxy-1H-benzimidazol-2-yl)methyl]-2-[(1R,4R)-2-oxa-5-azabicyclo[2.2.1]heptan-5-yl]pyrazolo[1,5-a][1,3,5]triazin-4-amine] | > 20000 | 7480 | 34.9 | 214
19 | Brc1cnn2c(NCc3nc4ccccc4[nH]3)nc(N3C[C@H]4CCCN[C@H]4C3)nc12 [Example 199, N-[(1H-benzimidazol-2-yl)methyl]-8-bromo-2-[(4aR, 7aR)-octahydro-6H-pyrrolo[3,4-b]pyridin-6-yl]pyrazolo[1,5-a][1,3,5]triazin-4-amine] | > 20000 | 14800 | 5.55 | 2661
20 | OC1(C(F)(F)F)CCN(c2nc(NCc3nc4ccccc4[nH]3)n3ncc(Br)c3n2)C1 (centres unmarked) [Example 200, 1-[4-(1H-benzimidazol-2-ylmethylamino)-8-bromo-pyrazolo[1,5-a][1,3,5]triazin-2-yl]-3-(trifluoromethyl)pyrrolidin-3-ol] | > 20000 | 4330 | 117 | 37
